Results reported in patent US20060035892A1, “Nitrosated imidazopyridines” (Atlanta Pharma AG, priority 2002, published 2006).

System: acid secretion stimulated by pentagastrin of the perfused rat stomach
Assay: Secretion-inhibiting action on the perfused rat stomach (pentagastrin-stimulated acid secretion in vivo)
Details: anesthetized female CD rats, pentagastrin 1 μg/kg i.v. stimulation, dose 1 μmol/kg i.d.
Source text: Testing of the Secretion-Inhibiting Action on the Perfused Rat Stomach
In Table A below, the influence of the compounds according to the invention after […] administration is shown on the acid secretion stimulated by pentagastrin of the perfused rat stomach in vivo.
The abdomen of anesthetized rats (CD rats, female, 200-250 g; 1.5 g/kg i.m. urethane) was opened after tracheotomy by means of a median upper abdominal incision and a PVC catheter was fixed transorally in the esophagus and a further catheter via the pylonus such that the ends of the tubing just projected into the gastric lumen. The catheter leading from the pylorus led outwards through a side opening in the right abdominal wall.
After thorough rinsing (about 50-100 ml), warm physiological NaCl solution at 37° C. was continuously passed through the stomach (0.5 ml/min, pH 6.8-6.9; Braun-Unita I). The pH (pH meter 632, glass electrode EA 147; φ=5 mm, Metrohm), and, by titration with a freshly prepared 0.01N NaOH solution to pH 7 (Dosimat 665 Metrohm), the secreted HCl were determined in the effluent in each case collected at an interval of 15 minutes.
The gastric secretion was stimulated by continuous perfusion of 1 μg/kg (=1.65 ml/h) of i.v. pentagastrin (left femoral vein) about 30 min after the end of the operation (i.e. after determination of 2 preliminary fractions). The substances to be tested were administered Intraduodenally in 2,5 ml/kg of liquid volume 60 min after the start of the pentagastrin continuous infusion.
The body temperature of the animals was kept at a constant 37.8-38° C. by infrared irradiation and heat pads (automatic, stepless control by means of rectal temperature sensors).

Row | SMILES | Inhibition of acid secretion
1 | COCCO[C@@H]1c2ccn3c(C)c(C)nc3c2N[C@H](c2ccccc2)[C@H]1OC(=O)CCCCO[N+](=O)[O-] [Example 1] | 100%
2 | COCCO[C@@H]1c2ccn3c(C)c(C)nc3c2N[C@H](c2ccccc2)[C@H]1OC(=O)CCCO[N+](=O)[O-] [Example 2] | 100%
3 | COCCO[C@@H]1c2ccn3c(C)c(C)nc3c2O[C@H](c2ccccc2)[C@@H]1OC(=O)CCCCO[N+](=O)[O-] [Example 3, (7R,8R,9R)-2,3-Dimethyl-7-(2-methoxyethoxy)-9-phenyl-8-(5-nitro-oxy-valeryloxy)-7H-8,9-dihydro-pyrano[2,3-c]imdazo[1,2-a]pyridine] | 100%
4 | CCC(CCCOC(=O)O[C@@H]1[C@@H](c2ccccc2)Nc2c(ccn3c(C)c(C)nc23)[C@H]1OCCOC)O[N+](=O)[O-] (stereo partly shown) [Example 4] | 100%
